According to the kinase profiling compilation of Christmann-Franck et al. (2016):

Experiments:
Test in all cases: KINOMEscan competition binding
Settings in all cases: compound 1.0 µM
[1] = tested on: ABL1 (human), P00519 [E255K]
[2] = tested on: ABL1 (human), P00519 [Y253F]
AKT1 (human) = AKT1 (human) (UniProt P31749)
AURKB (human) = AURKB (human) (UniProt Q96GD4)
[3] = tested on: BRAF (human), P15056 [V600E]
CDC42BPA (human) = CDC42BPA (human) (UniProt Q5VT25)
CDK14 (human) = CDK14 (human) (UniProt O94921)
CDK7 (human) = CDK7 (human) (UniProt P50613)
CDK8 (human) = CDK8 (human) (UniProt P49336)
DDR1 (human) = DDR1 (human) (UniProt Q08345)
[4] = tested on: EGFR (human), P00533 [L861Q]
EPHA7 (human) = EPHA7 (human) (UniProt Q15375)
[5] = tested on: FGFR3 (human), P22607 [G697C]
HIPK4 (human) = HIPK4 (human) (UniProt Q8NE63)
[6] = target: JAK3 JH1 catalytic (human) (UniProt P52333)
MAP2K4 (human) = MAP2K4 (human) (UniProt P45985)
MAP2K6 (human) = MAP2K6 (human) (UniProt P52564)
MAP3K15 (human) = MAP3K15 (human) (UniProt Q6ZN16)
MAP3K6 (human) = MAP3K6 (human) (UniProt O95382)
MAPK12 (human) = MAPK12 (human) (UniProt P53778)
MAPKAPK2 (human) = MAPKAPK2 (human) (UniProt P49137)
[7] = tested on: MET (human), P08581 [Y1235D]
MYLK2 (human) = MYLK2 (human) (UniProt Q9H1R3)
NEK5 (human) = NEK5 (human) (UniProt Q6P3R8)
PAK1 (human) = PAK1 (human) (UniProt Q13153)
PIP4K2B (human) = PIP4K2B (human) (UniProt P78356)
PKN1 (human) = PKN1 (human) (UniProt Q16512)
PKN2 (human) = PKN2 (human) (UniProt Q16513)
PLK3 (human) = PLK3 (human) (UniProt Q9H4B4)
PRKCQ (human) = PRKCQ (human) (UniProt Q04759)
PRKX (human) = PRKX (human) (UniProt P51817)
RET (human) = RET (human) (UniProt P07949)
RIPK2 (human) = RIPK2 (human) (UniProt O43353)
SRC (human) = SRC (human) (UniProt P12931)
STK16 (human) = STK16 (human) (UniProt O75716)
TEK (human) = TEK (human) (UniProt Q02763)
TTK (human) = TTK (human) (UniProt P33981)
TXK (human) = TXK (human) (UniProt P42681)
[8] = target: TYK2 JH1 catalytic (human) (UniProt P29597)
TYRO3 (human) = TYRO3 (human) (UniProt Q06418)

Measured: inhibition of binding

Chain of MAP2K4 (human) (P45985 whole entry, looked up): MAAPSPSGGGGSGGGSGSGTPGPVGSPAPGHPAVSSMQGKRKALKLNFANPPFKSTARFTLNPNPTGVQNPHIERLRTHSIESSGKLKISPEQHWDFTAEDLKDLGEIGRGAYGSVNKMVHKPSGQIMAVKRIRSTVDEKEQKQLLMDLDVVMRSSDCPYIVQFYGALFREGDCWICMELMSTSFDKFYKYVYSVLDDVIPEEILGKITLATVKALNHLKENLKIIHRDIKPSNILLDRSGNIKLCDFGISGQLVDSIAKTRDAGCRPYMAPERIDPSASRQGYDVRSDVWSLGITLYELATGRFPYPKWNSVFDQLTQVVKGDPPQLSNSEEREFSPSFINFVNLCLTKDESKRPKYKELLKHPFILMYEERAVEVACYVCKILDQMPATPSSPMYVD
Chain of HIPK4 (human) (Q8NE63 whole entry, looked up): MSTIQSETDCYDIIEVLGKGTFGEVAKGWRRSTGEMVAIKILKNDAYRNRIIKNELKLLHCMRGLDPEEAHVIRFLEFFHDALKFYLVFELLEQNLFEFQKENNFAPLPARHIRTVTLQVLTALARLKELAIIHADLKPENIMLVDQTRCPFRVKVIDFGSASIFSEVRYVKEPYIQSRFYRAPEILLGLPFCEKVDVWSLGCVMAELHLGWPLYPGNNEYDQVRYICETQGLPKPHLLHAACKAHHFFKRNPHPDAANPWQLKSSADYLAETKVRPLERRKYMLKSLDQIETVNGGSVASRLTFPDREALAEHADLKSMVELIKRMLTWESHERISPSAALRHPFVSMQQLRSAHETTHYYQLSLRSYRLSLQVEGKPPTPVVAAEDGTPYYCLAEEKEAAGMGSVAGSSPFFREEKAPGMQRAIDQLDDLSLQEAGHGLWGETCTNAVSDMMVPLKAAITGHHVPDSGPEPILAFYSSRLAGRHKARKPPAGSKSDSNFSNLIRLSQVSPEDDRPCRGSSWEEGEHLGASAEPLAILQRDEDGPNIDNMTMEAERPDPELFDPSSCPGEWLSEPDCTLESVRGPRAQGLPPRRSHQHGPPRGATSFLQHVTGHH
Chain of PLK3 (human) (Q9H4B4 whole entry, looked up): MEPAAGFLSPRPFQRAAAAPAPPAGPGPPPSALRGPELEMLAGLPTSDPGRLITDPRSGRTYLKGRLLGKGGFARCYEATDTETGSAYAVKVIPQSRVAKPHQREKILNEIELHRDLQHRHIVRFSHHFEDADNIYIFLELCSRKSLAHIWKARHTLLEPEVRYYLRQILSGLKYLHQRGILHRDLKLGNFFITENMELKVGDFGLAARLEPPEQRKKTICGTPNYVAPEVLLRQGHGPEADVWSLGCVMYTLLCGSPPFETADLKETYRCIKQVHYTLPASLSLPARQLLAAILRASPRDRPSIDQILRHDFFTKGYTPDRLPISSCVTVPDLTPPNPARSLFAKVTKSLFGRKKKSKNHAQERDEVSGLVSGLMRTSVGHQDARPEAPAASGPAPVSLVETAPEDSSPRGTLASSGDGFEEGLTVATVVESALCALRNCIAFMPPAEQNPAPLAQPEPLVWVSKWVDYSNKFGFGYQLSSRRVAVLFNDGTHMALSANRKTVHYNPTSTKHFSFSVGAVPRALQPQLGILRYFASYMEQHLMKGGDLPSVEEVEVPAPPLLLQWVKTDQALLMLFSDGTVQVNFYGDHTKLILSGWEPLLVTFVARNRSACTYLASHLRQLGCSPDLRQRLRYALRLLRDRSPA
Chain of MAP2K6 (human) (P52564 whole entry, looked up): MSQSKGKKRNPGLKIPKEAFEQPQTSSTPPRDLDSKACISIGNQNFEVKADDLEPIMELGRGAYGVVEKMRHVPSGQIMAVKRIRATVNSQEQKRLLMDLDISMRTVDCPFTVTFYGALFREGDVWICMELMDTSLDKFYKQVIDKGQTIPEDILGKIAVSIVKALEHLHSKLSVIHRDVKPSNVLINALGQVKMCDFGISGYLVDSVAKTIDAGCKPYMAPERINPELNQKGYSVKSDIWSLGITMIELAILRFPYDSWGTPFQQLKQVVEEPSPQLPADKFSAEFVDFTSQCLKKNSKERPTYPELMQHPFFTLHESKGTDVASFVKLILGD
Chain of PAK1 (human) (Q13153 whole entry, looked up): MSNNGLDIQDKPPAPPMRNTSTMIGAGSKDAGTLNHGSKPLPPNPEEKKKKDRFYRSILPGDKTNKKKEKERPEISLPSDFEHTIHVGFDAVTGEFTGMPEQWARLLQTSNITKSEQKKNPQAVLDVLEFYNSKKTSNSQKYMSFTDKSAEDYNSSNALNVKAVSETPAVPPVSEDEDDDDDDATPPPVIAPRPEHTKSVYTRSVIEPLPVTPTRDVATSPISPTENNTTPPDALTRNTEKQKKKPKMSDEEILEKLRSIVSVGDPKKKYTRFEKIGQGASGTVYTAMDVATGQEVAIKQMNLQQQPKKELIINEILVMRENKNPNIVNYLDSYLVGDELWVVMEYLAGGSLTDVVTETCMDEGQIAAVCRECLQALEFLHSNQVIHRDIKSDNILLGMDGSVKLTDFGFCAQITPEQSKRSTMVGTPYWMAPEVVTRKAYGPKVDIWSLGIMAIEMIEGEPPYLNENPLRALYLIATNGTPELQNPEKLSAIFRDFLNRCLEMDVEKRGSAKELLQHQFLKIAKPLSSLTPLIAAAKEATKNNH
Chain of PKN2 (human) (Q16513 whole entry, looked up): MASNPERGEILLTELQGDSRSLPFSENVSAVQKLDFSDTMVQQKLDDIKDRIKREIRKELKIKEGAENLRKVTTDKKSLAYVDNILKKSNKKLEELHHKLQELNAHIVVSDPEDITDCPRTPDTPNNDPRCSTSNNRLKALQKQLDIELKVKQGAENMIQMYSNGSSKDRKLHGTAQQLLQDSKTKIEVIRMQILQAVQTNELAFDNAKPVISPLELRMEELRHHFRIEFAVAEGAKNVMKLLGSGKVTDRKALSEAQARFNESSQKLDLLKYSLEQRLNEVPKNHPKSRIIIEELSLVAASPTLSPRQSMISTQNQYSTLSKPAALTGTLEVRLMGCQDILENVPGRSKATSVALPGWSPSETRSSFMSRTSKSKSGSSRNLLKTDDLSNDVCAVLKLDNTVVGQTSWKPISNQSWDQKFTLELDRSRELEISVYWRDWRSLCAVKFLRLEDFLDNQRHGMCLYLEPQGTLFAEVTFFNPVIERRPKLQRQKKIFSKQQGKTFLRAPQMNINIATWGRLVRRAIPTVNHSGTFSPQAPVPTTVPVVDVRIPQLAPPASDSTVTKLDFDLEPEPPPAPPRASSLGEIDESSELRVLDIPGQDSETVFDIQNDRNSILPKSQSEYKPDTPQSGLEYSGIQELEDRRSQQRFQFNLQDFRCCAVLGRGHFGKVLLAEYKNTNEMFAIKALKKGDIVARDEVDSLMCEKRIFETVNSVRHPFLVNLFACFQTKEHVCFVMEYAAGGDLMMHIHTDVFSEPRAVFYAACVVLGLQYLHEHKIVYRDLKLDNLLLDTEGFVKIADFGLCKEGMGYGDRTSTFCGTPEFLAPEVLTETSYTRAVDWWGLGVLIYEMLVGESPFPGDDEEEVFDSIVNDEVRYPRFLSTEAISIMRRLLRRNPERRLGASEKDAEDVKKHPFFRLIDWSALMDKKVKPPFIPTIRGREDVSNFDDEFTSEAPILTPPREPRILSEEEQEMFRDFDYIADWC
Chain of TTK (human) (P33981 whole entry, looked up): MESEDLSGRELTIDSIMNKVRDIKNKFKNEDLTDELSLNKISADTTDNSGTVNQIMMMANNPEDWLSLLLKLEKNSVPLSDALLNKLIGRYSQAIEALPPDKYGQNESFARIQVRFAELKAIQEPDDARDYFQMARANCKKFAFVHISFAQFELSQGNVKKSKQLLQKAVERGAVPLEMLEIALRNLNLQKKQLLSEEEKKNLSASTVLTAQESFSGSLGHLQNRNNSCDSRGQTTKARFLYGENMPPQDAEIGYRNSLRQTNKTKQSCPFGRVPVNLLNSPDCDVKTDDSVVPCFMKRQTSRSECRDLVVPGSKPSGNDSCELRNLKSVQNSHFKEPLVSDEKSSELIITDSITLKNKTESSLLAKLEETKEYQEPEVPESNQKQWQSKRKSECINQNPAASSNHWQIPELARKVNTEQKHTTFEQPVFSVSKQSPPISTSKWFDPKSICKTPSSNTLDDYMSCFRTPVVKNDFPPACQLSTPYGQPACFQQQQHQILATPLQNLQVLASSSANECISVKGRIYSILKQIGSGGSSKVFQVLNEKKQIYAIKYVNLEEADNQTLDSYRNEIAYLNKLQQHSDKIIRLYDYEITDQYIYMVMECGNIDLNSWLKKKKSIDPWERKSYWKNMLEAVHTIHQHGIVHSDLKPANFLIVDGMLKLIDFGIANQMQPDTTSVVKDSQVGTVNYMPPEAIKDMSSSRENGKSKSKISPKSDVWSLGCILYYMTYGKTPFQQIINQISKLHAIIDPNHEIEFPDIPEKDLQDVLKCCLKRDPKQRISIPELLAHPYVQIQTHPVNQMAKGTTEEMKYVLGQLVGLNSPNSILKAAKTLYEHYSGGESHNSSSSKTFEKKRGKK
Chain of CDK14 (human) (O94921 whole entry, looked up): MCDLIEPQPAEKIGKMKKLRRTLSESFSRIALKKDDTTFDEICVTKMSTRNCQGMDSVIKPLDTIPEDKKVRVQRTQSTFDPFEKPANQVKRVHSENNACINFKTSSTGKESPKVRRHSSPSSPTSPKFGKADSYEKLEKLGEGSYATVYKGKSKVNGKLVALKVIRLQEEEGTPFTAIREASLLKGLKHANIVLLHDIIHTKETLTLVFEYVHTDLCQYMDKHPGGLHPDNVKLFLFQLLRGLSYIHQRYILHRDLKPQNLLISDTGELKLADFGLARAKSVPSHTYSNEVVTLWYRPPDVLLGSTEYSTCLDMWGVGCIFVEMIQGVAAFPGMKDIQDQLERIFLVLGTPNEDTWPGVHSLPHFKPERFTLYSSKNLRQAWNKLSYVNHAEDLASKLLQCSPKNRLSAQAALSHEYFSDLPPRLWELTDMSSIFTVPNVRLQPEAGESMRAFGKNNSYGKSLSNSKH

Nc1cc(C(F)(F)F)c(-c2cc(N3CCOCC3)nc(N3CCOCC3)n2)cn1
7%: DDR1 (human) | TTK (human)
100%: [6]
21%: HIPK4 (human)
6%: SRC (human)
5%: MYLK2 (human)
27%: CDK14 (human)
8%: RET (human)
15%: MAP2K4 (human)
17%: [3] | MAPK12 (human)
4%: PAK1 (human)
0%: all other assays above
